Measured values: patent US20050267166A1, “Continuous dosing regimen” (priority 2004, published 2005)

Legend:
[1] = tested on: M5076 transplantable murine reticulum cell sarcoma; conditions: for antitumor activity in the M5076 model: in words; for ILS: comparator drugs, dose not given
[2] = tested on: NCI-H460 human non-small cell lung carcinoma; test: NCI-H460 xenograft model; format: in vivo; conditions: in words
Description: NCI-H460 is a human non-small cell lung carcinoma derived cell line. It is MDR negative, has wild type p53, and contains an oncogenic K-ras mutation.

C26 colon tumors = C26 colon tumors grown in the flank of CDF-1 mice; format: in vivo; conditions: comparator, regimen not given
[3] = tested on: HCT-15 human colon carcinoma; test: HCT-15 human colon carcinoma xenografts; format: in vivo; conditions: in words
Description: HCT-15 is a human colon carcinoma derived cell line. It is MDR positive, and expresses both mutant p53 and oncogenic K-ras. The HCT-15 cell line has one of the highest levels of mdr-1/P-glycoprotein expression of cells from the NCI tumor cell line panel.
Effect of Cytotoxic Agents on the Growth of HCT-15 Human Colon Carcinoma Xenografts

[4] = target: biotinylated bovine brain tubulin

Ki ([4]; competition of [3H]colchicine)	displacement of [3H]colchicine from the colchicine site of tubulin β-subunits ([4]; in words)	SMILES	antitumor activity in the M5076 model [1]	ILS [1]	efficacy in the NCI-H460 xenograft model [2]	efficacy against C26 colon tumors (C26 colon tumors)	efficacy in HCT-15 xenografts [3]
		O=P1(N(CCCl)CCCl)NCCCO1 (stereo not shown) [cyclophosphamide]	sensitive				
		COc1cccc2c1C(=O)c1c(O)c3c(c(O)c1C2=O)C[C@@](O)(C(=O)CO)C[C@@H]3O[C@H]1C[C@H](N)[C@H](O)[C@H](C)O1 [doxorubicin]	only marginally active	13%			
		CC(=O)O[C@H]1C(=O)[C@@]2(C)[C@H]([C@H](OC(=O)c3ccccc3)[C@]3(O)C[C@H](OC(=O)[C@H](O)[C@@H](NC(=O)c4ccccc4)c4ccccc4)C(C)=C1C3(C)C)[C@]1(OC(C)=O)CO[C@@H]1C[C@@H]2O [paclitaxel, reference compound]	resistant		lacked activity	not efficacious	not efficacious
> 100 µM	do not displace	CC[C@]1(O)C[C@@H]2CN(CCc3c([nH]c4ccccc34)[C@@](C(=O)OC)(c3cc4c(cc3OC)N(C)[C@H]3[C@@](O)(C(=O)OC)[C@H](OC(C)=O)[C@]5(CC)C=CCN6CC[C@]43[C@@H]65)C2)C1 [vinblastine]					
		CC[C@]1(O)C[C@H]2CN(CCc3c([nH]c4ccccc34)[C@@](C(=O)OC)(c3cc4c(cc3OC)N(C=O)[C@H]3[C@@](O)(C(=O)OC)[C@H](OC(C)=O)[C@]5(CC)C=CCN6CC[C@]43[C@@H]65)C2)C1 [vincristine, reference compound]	only marginally active	17%	lacked activity		not efficacious
